EC50 data for nine compounds are collected here from BindingDB's records for doi:10.1016/s0960-894x(99)00197-3 (The R. W. Johnson Pharmaceutical Research Institute, 1999).

SMILES strings stand for the structures. Where a SMILES comes first, the peptide text is derived from it. [ ]: non-standard residue; d: D form. Cha = N[C@@H](CC1CCCCC1)C(=O)O; 3Abz = Nc1cccc(C(=O)O)c1

The experiment in a line: Inhibition of [3H]S-(p-F-Phe)-Har-L-Har-KY-NH2 binding to Thrombin receptor 1 (PAR-1) on membranes from CHRF cells.
In general, EC50 refers to the concentration needed to bring the measured effect to its halfway point. Low values mean a more potent agent, high ones a less potent agent. `N=C(N)NCCC[C@H](NC(=O)[C@H](CC1CCCCC1)NC(=O)c1cccnc1N)C(=O)N[C@@H](Cc1ccccc1)C(N)=O` [2-Amino-N-{(S)-1-[(S)-1-((S)-1-carbamoyl-2-phenyl-ethylcarbamoyl)-4-guanidino-butylcarbamoyl]-2-cyclohexyl-ethyl}-nicotinamide] had an EC50 of 8 µM.

As for `N=C(N)NCCC[C@H](NC(=O)[C@H](CC1CCCCC1)NC(=O)c1cccc(N)c1)C(=O)N[C@@H](Cc1ccccc1)C(N)=O` [3-Amino-N-{(S)-1-[(S)-1-((S)-1-carbamoyl-2-phenyl-ethylcarbamoyl)-4-guanidino-butylcarbamoyl]-2-cyclohexyl-ethyl}-benzamide] (H-[3Abz][Cha]RF-NH2), the EC50 was 2.9 µM.

In turn, `N=C(N)NCCC[C@H](NC(=O)[C@H](CC1CCCCC1)NC(=O)c1nnc(NC(=O)C=Cc2c[nH]c3ccccc23)[nH]1)C(=O)N[C@@H](Cc1ccccc1)C(N)=O` [5-((E)-3-1H-Indol-3-yl-acryloylamino)-1H-[1,2,4]triazole-3-carboxylic acid {(S)-1-[(S)-1-((S)-1-carbamoyl-2-phenyl-ethylcarbamoyl)-4-guanidino-butylcarbamoyl]-2-cyclohexyl-ethyl}-amide] gave an EC50 of 14 µM.

Turning to `N=C(N)NCCC[C@H](NC(=O)[C@H](CC1CCCCC1)NC(=O)c1nnc(NC(=O)C=Cc2cccs2)[nH]1)C(=O)N[C@@H](Cc1ccccc1)C(N)=O` [5-((E)-3-Thiophen-2-yl-acryloylamino)-1H-[1,2,4]triazole-3-carboxylic acid {(S)-1-[(S)-1-((S)-1-carbamoyl-2-phenyl-ethylcarbamoyl)-4-guanidino-butylcarbamoyl]-2-cyclohexyl-ethyl}-amide], the midpoint of the response, the EC50, lay at 2.9 µM.

With `N=C(N)NCCC[C@H](NC(=O)[C@H](CC1CCCCC1)NC(=O)c1nnc(N)[nH]1)C(=O)N[C@@H](Cc1cccs1)C(N)=O` [5-Amino-1H-[1,2,4]triazole-3-carboxylic acid {(S)-1-[(S)-1-((S)-1-carbamoyl-2-thiophen-2-yl-ethylcarbamoyl)-4-guanidino-butylcarbamoyl]-2-cyclohexyl-ethyl}-amide], the concentration for a half-maximal effect (EC50) came to 10.5 µM.

Turning to `N=C(N)NCCC[C@H](NC(=O)[C@H](CC1CCCCC1)NC(=O)c1nnc(NC(=O)C=Cc2ccccc2Cl)[nH]1)C(=O)N[C@@H](Cc1ccccc1)C(N)=O` [5-[(E)-3-(2-Chloro-phenyl)-acryloylamino]-1H-[1,2,4]triazole-3-carboxylic acid {(S)-1-[(S)-1-((S)-1-carbamoyl-2-phenyl-ethylcarbamoyl)-4-guanidino-butylcarbamoyl]-2-cyclohexyl-ethyl}-amide], the EC50 came to 1.1 µM. Compared with the last compound, the EC50 is about 9.5-fold lower.

In turn, `N=C(N)NCCC[C@H](NC(=O)[C@H](CC1CCCCC1)NC(=O)c1nnc(NC(=O)C=Cc2ccc(Cl)cc2)[nH]1)C(=O)N[C@@H](Cc1ccccc1)C(N)=O` [5-[(E)-3-(4-Chloro-phenyl)-acryloylamino]-1H-[1,2,4]triazole-3-carboxylic acid {(S)-1-[(S)-1-((S)-1-carbamoyl-2-phenyl-ethylcarbamoyl)-4-guanidino-butylcarbamoyl]-2-cyclohexyl-ethyl}-amide] yielded an EC50 of 55 µM.

Regarding `COc1ccc(C=CC(=O)Nc2nnc(C(=O)N[C@@H](CC3CCCCC3)C(=O)N[C@@H](CCCNC(=N)N)C(=O)N[C@@H](Cc3ccccc3)C(N)=O)[nH]2)cc1` [5-[(E)-3-(4-Methoxy-phenyl)-acryloylamino]-1H-[1,2,4]triazole-3-carboxylic acid {(S)-1-[(S)-1-((S)-1-carbamoyl-2-phenyl-ethylcarbamoyl)-4-guanidino-butylcarbamoyl]-2-cyclohexyl-ethyl}-amide], it took 5.6 µM to reach a half-maximal effect (EC50).

`N=C(N)NCCC[C@H](NC(=O)[C@H](CC1CCCCC1)NC(=O)c1nnc(NC(=O)C=Cc2ccc(C(F)(F)F)cc2)[nH]1)C(=O)N[C@@H](Cc1ccccc1)C(N)=O` [5-[(E)-3-(4-Trifluoromethyl-phenyl)-acryloylamino]-1H-[1,2,4]triazole-3-carboxylic acid {(S)-1-[(S)-1-((S)-1-carbamoyl-2-phenyl-ethylcarbamoyl)-4-guanidino-butylcarbamoyl]-2-cyclohexyl-ethyl}-amide] yielded an EC50 of 5 µM.
